# Measurements reported in patent publication US5387109A (priority 1992, dated 1995).
# Tested on: fructosylamine deglycase
# Assay: Substrate specificity of the enzyme to amadori compounds (colorimetric determination of hydrogen peroxide formed)
# Format: biochemical, Candida guilliermondii 7087
# Conditions: substrate concentration 1 mM
# Protocol: 0.1 ml of 1 mM di-fructosyl-lysine (as dissolved in 0.05M phosphate buffer pH 7.0) is added to 0.4 ml of 0.05M phosphate buffer (pH 7.0) containing 0.3 mM 4-aminoantipyrine, 0.5 mM N-ethyl-N-(2-hydroxy-3-sulfopropyl)-m-toluidine (TOOS) and 2.0 U/ml peroxidase, and the temperature of the resulting system is equilibrated at 37° C. To this is added 0.06 ml of the enzyme solution having a suitable activity, whereupon the variation of the absorbance of the system is measured with a spectrophotometer (U-2000 Model, manufactured by Hitachi Ltd. ). From the calibration curve as formed from a standard solution containing a determined amount of hydrogen peroxide to indicate the relation between the variation of the absorbance and the amount of hydrogen peroxide, the amount of the hydrogen peroxide as formed in the test system is obtained. The amount of the enzyme of forming one micromole of hydrogen peroxide per one minute is defined to be one activity unit.
# 0.2 ml of 1 mM di-fructosyl-lysine (as dissolved in 0.05M phosphate buffer pH 7.0) is prepared, and the temperature of it is equilibrated at 37° C. To this is added 0.12 ml of the enzyme solution having a suitable activity and reacted for a suitable period of time at 37° C., and the reaction is stopped in a hot water bath of 100° C. To this is added 0.8 ml of 0.05M phosphate buffer (pH 7.0) containing 0.3 mM 4-aminoantipyrine, 0.5 mM TOOS and 2.0 U/ml peroxidase, whereupon the variation of the absorbance of the system is measured with a spectrophotometer (U-2000 Model, manufactured by Hitachi Ltd. ). From the calibration curve as formed from a standard solution containing a determined amount of hydrogen peroxide to indicate the relation between the variation of the absorbance and the amount of hydrogen peroxide, the amount of the hydrogen peroxide as formed in the test system is obtained. The amount of the enzyme of forming one micromole of hydrogen peroxide per one minute is defined to be one activity unit.
# The enzyme catalyzes the reaction of decomposing amadori compounds of α-amino acids, β-amino acids, ε-amino acids, D-amino acids and amines to form a glucosone, hydrogen peroxide and the corresponding amino acid or amine. The enzyme not only decomposes amadori compounds of α-amino acids but also effectively acts on other amadori compounds having fructose as bonded to amino groups as positioned in other positions than the α-position of amino acids (for example, di-D-fructosyl-lysine, ε-D-fructosyl-L-lysine).
# The concentration of the substrate as employed for the measurement was 2 mM, except for the use of 1 mM for di-D-fructosyl-lysine.
# The data of the activity are relative values to the activity to D-fructosyl-glycine being 100.
row,Molecule,Activity of the Enzyme (relative values to the activity to D-fructosyl-glycine being 100)
1,Di-D-fructosyl-lysine,3500

# Same assay, conditions: substrate concentration 2 mM
row,Molecule,Activity of the Enzyme (relative values to the activity to D-fructosyl-glycine being 100)
1,C[C@@H](NCC(=O)[C@@H](O)[C@H](O)[C@H](O)CO)C(=O)O [D-fructosyl-D-alanine],26
2,C[C@H](NCC(=O)[C@@H](O)[C@H](O)[C@H](O)CO)C(=O)O [D-fructosyl-L-alanine],251
3,N[C@@H](CCCCNCC(=O)[C@@H](O)[C@H](O)[C@H](O)CO)C(=O)O [D-fructosyl-L-lysine],1386
4,O=C(O)[C@H](Cc1ccccc1)NCC(=O)[C@@H](O)[C@H](O)[C@H](O)CO [D-fructosyl-L-phenylalanine],36
5,O=C(CN1CCC[C@H]1C(=O)O)[C@@H](O)[C@H](O)[C@H](O)CO [D-fructosyl-L-proline],1348
6,O=C(O)CNCC(=O)[C@@H](O)[C@H](O)[C@H](O)CO [D-fructosyl-glycine],100
7,CNCC(=O)[C@@H](O)[C@H](O)[C@H](O)CO [D-fructosyl-methylamine],105
8,CN(CC(=O)O)CC(=O)[C@@H](O)[C@H](O)[C@H](O)CO [D-fructosyl-sarcosine],63
9,O=C(O)CCNCC(=O)[C@@H](O)[C@H](O)[C@H](O)CO [D-fructosyl-β-alanine],44
10,D-fructosyl-polylysine,34

# Tested on: fructosylamine deglycase
# Assay: Influence by inhibitors on the enzyme
# Format: biochemical, Candida guilliermondii 7087
# Conditions: 2 mM inhibitor; 10 mM phosphate buffer pH 6.0; 37° C., 4 minutes
# Protocol: The influence of a 2 mM inhibitor on the enzyme was as follows: […]
row,Molecule,Inhibition of the enzyme
1,[Co+2] [Co^2+],strongly inhibited
2,[Cu+2] [Cu^2+],strongly inhibited
3,[Mg+2] [Mg^2+],not inhibited
4,[N-]=[N+]=[N-].[Na+] [NAN3],not inhibited
5,[Ni+2] [Ni^2+],strongly inhibited
6,[Zn+2] [Zn^2+],strongly inhibited
7,O=C(O)c1cc[c]([Hg][Cl])cc1 [p-chloromercuribenzoic acid],strongly inhibited
